Values after ≈ are worked out from the molar mass of the structure shown. Like-named read-outs stand apart in the source and are kept apart here.
Legend:
[1] = test system: Herpes Simplex virus of the type I (HSV-I/Leningrad/248/88); experiment: Effect on Herpes Simplex virus: cytopathogenic effect in Vero cells; format: cell-based; conditions: for Quantity of the unchanged cells: number of cells in 100 visual fields
mice [2] = experiment: Analgesic activity (tail withdrawal from radiant heat); format: in vivo
Description: The time needed to draw back a tail placed under a directed source of radiant heat was estimated in a group of 3 mice. Prolongation of the response time by more than 50% after intraperitoneal dosing the substance (30 mg/kg) indicated analgesic activity. Analginum (2 mg/kg) was utilized as a reference agent.

[3] = test system: Mycobaciterium tuberculosis H37RV; experiment: Antimicrobial effect, serial dilution method (MIC); format: cell-based, Mycobacterium tuberculosis; conditions: 72-hour cultivation at 37° C.
mice [4] = experiment: Psychodepressant activity (behavioral depression score); format: in vivo; conditions: one hour after per oral 300 mg/kg; total 60 points, less than 40 = significant behavioral depression; 3 mice
Description: Each parameter scores 2 points for an each mouse that had unchanged behavior. The total point sum was 60 (2×10×3 mice). Reducing score to less than 40 one hour after dosing with a substance per oral (300 mg/kg) denoted significant behavioral depression. Haloperidol was utilized as a reference agent.

[5] = test system: primary culture of human lymphocytes; experiment: Interferon-inducing activity in primary culture of human lymphocytes (IFN-α immunoenzyme test); format: cell-based
Description: To obtain lymphocyte culture, fresh blood (within 12 hours after sampling) from healthy donors (not of group II) was used. To separate lymphocytes, heparinized blood obtained from healthy donor was centrifuged in a density gradient ficoll-verografin of […] in order to extract a fraction of immunocompetent cells. This fraction was selected and diluted with the nutrient medium RPMI-1640, containing 5% of fetal calf serum, 0.3 mg/ml of L-glutamin, 100 un/ml of penicillin, and 50 μg/ml of streptomycin. The concentration of lymphocytes was considered after dying them with methylene blue and calculation of cell number in a chamber of a hemocytometer. Initial solutions of the claimed compounds were diluted with the nutrient medium RPMI-1640 so that the final concentrations of the compounds which were obtained after introduction of lymphocyte suspension, constituted the raw: 100 μg/ml, 10 μg/ml, 1 μg/ml. The final concentration of lymphocytes in the induction mixture was 3×10^6 cell/ml.
Control and test samples were incubated for 24 hours at the temperature of 37° C. After incubation, the samples were centrifuged at 2,000 G to deposit cell elements, and IFN-containing supernatant was separate out of the samples; then the supernatant was analyzed for the quantitative content of IFN. Cell deposition was resuspended in the preceding volume of nutrient medium, colored with vital dye trypan blue, and cell number was counted in a chamber of a hemocytometer (as described above) to determine cytotoxic effect of the compounds.
Quantitative determination of the content of IFN in control and test samples was conducted using the immunoenzyme test system Pro Con IF2 Plus, that is intended for determination of IFN-α, which is produced by TOO <<Protein contour>>. The solid-phase immunoenzyme method, utilizing horse radish peroxidase as an indicator enzyme, was used to determine the quantity of interferon in the samples. Activity of the bonded peroxidase was measured using an automatic photometer for microplates with a microprocessor at the wavelength of 450 nm.
Based on the obtained results, a calibrating curve was formed, which allows to obtain data expressed in international units (IU) of activity, using the microprocessor of the automatic photometer. The results of the analysis are expressed in IU of activity of IFN per ml in the given induction system, which contains 3×10^6 lymphocyte/ml. Each test and control point was investigated in four parallels.
The obtained data were undergone a statistical analysis using t-criterion, and calculation of the confident interval of probability at p=0.05 was carried out. Coincidence between the results obtained in the parallel tests was analyzed.

no-breed white mice = format: in vivo; conditions: observed 72 hours, 300 was the maximally utilized concentration
Description: Tested substance was introduced orally (in dose of 300 mg/kg) through a gastric tube or intraperitoneally (in dose of 100 mg/kg) to no-breed white mice with mass 18-20 g (each tested group consisted of 3 males and 3 females). Then the mouse state was observed during 72 hours. Absence of symptoms characteristic of toxic effects, or absence of animal death during the given time allows to make a conclusion that the toxicity of the tested substance is low. If acute toxicity effects are observed, the dose is reduced to find maximal tolerable dose.

C.trachomatis D323 = experiment: Effect on Chlamydia trachomatis in cell culture; format: cell-based; conditions: for percentage of cell protection from infection / Number of unchanged cells: 100 mg/l, 48 hours; for Number of unchanged cells: counted in 100 visual fields; for activity against chlamydia (in words): compared with Ciprofloxacin / compounds of Table 5
Description: The […] activity of the claimed compounds was studied in respect to C.trachomatis […], which is a standard strain contained in the collection of the department of microbiology of St. Petersburg State Pavlov Medical University. […] Cells were grown in flasks made of neutral glass in the medium RPMI-1640 containing 10% of fetal calf serum. The test was performed in flat-bottom flasks made of glass (non-toxic), that were supplied with cover glasses. The cells were introduced into the medium in the final concentration of 1×10^6 cell/ml. […] Simultaneously, tested compounds in a final concentration of 100 mg/l were added to the cells. The sample was centrifuged at 2400 G for 60 minutes at a room temperature and incubated at 37° C. for 2 hours. […] The samples were doubled using the medium without cycloheximide so as to exclude its effect on the investigated compounds. The samples were incubated for 48 hours in CO2-incubator. […] The effect of the compound was determined by analysis of the monolayer state and number of cells with CPI when compared with the control (cell culture infected with C.trachomatis […]); in doing so, the number of unchanged cells, that were counted in 100 visual fields obtained using the eyepiece-micrometer, was taken into consideration.

rats = experiment: Hepatoprotective activity (CCl4 liver damage, AlAT); format: in vivo
Description: CCl4 dissolved in 50% olive oil (1 ml/kg) was subcutaneously administrated to rats. Test substances were administrated perorally in a dose of 20 mg/kg 30 minutes before and 7 hours after the CCL4 administration. The activity of alanine-aminotranspherase (AlAT), which is a marker enzyme of liver parenchyma damage, was assessed twenty-four hours later. Reducing of enzyme amount by more than 30% relative to the control group was considered as evidence of hepatoprotective properties of the substance. Vitamin E in a dose of 100 mg/kg was used as a reference agent.

[6] = Mycobacterium tuberculosis, H37RV, read-out: MIC
[7] = compound 100 μg/ml, 36 hours of incubation

Molecule: Nc1nc2c(ncn2COCCO)c(=O)[nH]1 [Acyclovir, reference compound]
- % of protection ([1]; Acyclovir 30 μg/ml): 80%
- Quantity of the unchanged cells ([1]; Acyclovir 30 μg/ml): 8000

Molecule: Cc1c(N(C)CS(=O)(=O)[O-])c(=O)n(-c2ccccc2)n1C.[Na+] [Analginum, reference compound]
- Prolongation of the latent period of response (%) (mice [2]; Analginum 2 mg/kg, reference agent): 86%

Molecule: CC[C@@H](CO)NCCN[C@@H](CC)CO [Ethambutol]
- MIC [3, 6]: 5 µg/mL (≈ 24.5 µM)

Molecule: O=C(CCCN1CCC(O)(c2ccc(Cl)cc2)CC1)c1ccc(F)cc1 [Haloperidol, reference compound]
- Point number (mice [4]): 27

Molecule: O=c1[nH]cc(N=Cc2ccccc2Cl)c(=O)[nH]1 [IV, 2,4-dioxo-5-(2-chlorobenzylidene) imino-1,3-pyrimidine]
- Content of IFN in induction mixture after 24-hour incubation ([5]; substance 1 mg/l): 15,2 ± 0,3 IU/3 × 10^4 lymph./ml
- Content of IFN in induction mixture after 24-hour incubation ([5]; substance 10 mg/l): 62,5 ± 1,3 IU/3 × 10^4 lymph./ml
- Content of IFN in induction mixture after 24-hour incubation ([5]; substance 100 mg/l): 123,6 ± 0,5 IU/3 × 10^4 lymph./ml
- Maximal tolerable dose: Concentration of tested compounds (mg/l) at oral introducing (no-breed white mice): 300 mg/L

Molecule: NNC(=O)c1ccncc1 [Isoniazid]
- MIC [3, 6]: 0.1 µg/mL (≈ 0.729 µM)

Molecule: CC1COc2c(N3CCN(C)CC3)c(F)cc3c(=O)c(C(=O)O)cn1c23 (stereo not drawn) [Ofloxacin]
- MIC [3, 6]: 0.5 µg/mL (≈ 1.38 µM)

Molecule: [H]/N=C(/N)N[C@H]1[C@H](O)[C@@H](O)[C@H](O[C@@H]2O[C@@H](C)[C@](O)(C=O)[C@H]2O[C@@H]2O[C@@H](CO)[C@H](O)[C@@H](O)[C@@H]2NC)[C@@H](N/C(N)=N\[H])[C@@H]1O [Streptomycin]
- MIC [3, 6]: 0.2 µg/mL (≈ 0.344 µM)

Molecule: O=c1[nH]cc(N=Cc2cc(Br)ccc2O)c(=O)[nH]1 [VIII, 2,4-dioxo-5-(2-hydroxy-5-bromobenzylidene) imino-1,3-pyrimidine]
- MIC [3]: 100 µg/mL (≈ 322 µM)
- Maximal tolerable dose: Concentration of tested compounds (mg/l) at oral introducing (no-breed white mice): 300 mg/L

Molecule: O=c1[nH]cc(N=Cc2ccc(Cl)cc2Cl)c(=O)[nH]1 [XI, 2,4-dioxo-5-(2,4-dichlorobenzylidene) imino-1,3-pyrimidine]
- percentage of cell protection from infection (C.trachomatis D323): 55%
- Number of unchanged cells (C.trachomatis D323): 7.700
- activity against chlamydia (in words) (C.trachomatis D323): marked activity against chlamydia
- Maximal tolerable dose: Concentration of tested compounds (mg/l) at oral introducing (no-breed white mice): 300 mg/L

Molecule: O=c1[nH]cc(N=Cc2cc(Cl)cc(Cl)c2O)c(=O)[nH]1 [XII, 2,4-dioxo-5-(2-hydroxy-3,5-dichlorobenzylidene) imino-1,3-pyrimidine]
- % of protection [1, 7]: 90%
- Quantity of the unchanged cells [1, 7]: 9000
- MIC [3]: 100 µg/mL (≈ 333 µM)
- Point number (mice [4]): 35
- Prolongation of the latent period of response (%) (mice [2]; intraperitoneal 30 mg/kg, more than 50% = analgesic activity): 96%
- % of reducing AIAT (rats; perorally 20 mg/kg 30 minutes before and 7 hours after CCl4, assessed 24 hours later, relative to control group): −48%
- Maximal tolerable dose: Concentration of tested compounds (mg/l) at oral introducing (no-breed white mice): 300 mg/L

Molecule: O=c1[nH]cc(N=Cc2cc(Br)cc(Br)c2O)c(=O)[nH]1 [XIII, 2,4-dioxo-5-(2-hydroxy-3,5-dibromobenzylidene) imino-1,3-pyrimidine]
- % of protection [1, 7]: 80%
- Quantity of the unchanged cells [1, 7]: 8000
- Maximal tolerable dose: Concentration of tested compounds (mg/l) at oral introducing (no-breed white mice): 300 mg/L

Molecule: O=c1[nH]cc(N=Cc2cc([N+](=O)[O-])ccc2O)c(=O)[nH]1 [XIX, 2,4-dioxo-5-(2-hydroxy-5-nitrobenzylidene) imino-1,3-pyrimidine]
- % of protection [1, 7]: 80%
- Quantity of the unchanged cells [1, 7]: 8000
- Maximal tolerable dose: Concentration of tested compounds (mg/l) at oral introducing (no-breed white mice): 300 mg/L

Molecule: COc1cc(C=Nc2c[nH]c(=O)[nH]c2=O)ccc1O [XV, 2,4-dioxo-5-(4-hydroxy-3-methoxybenzylidene) imino-1,3-pyrimidine]
- Content of IFN in induction mixture after 24-hour incubation ([5]; substance 1 mg/l): 4,5 ± 1,6 IU/3 × 10^4 lymph./ml
- Content of IFN in induction mixture after 24-hour incubation ([5]; substance 10 mg/l): 54,2 ± 1,8 IU/3 × 10^4 lymph./ml
- Content of IFN in induction mixture after 24-hour incubation ([5]; substance 100 mg/l): 105 ± 2 IU/3 × 10^4 lymph./ml
- Maximal tolerable dose: Concentration of tested compounds (mg/l) at oral introducing (no-breed white mice): 300 mg/L

Molecule: O=c1[nH]cc(N=Cc2ccccc2[N+](=O)[O-])c(=O)[nH]1 [XVIII, 2,4-dioxo-5-(2-nitrobenzylidene) imino-1,3-pyrimidine]
- MIC [3]: 100 µg/mL (≈ 384 µM)
- Maximal tolerable dose: Concentration of tested compounds (mg/l) at oral introducing (no-breed white mice): 300 mg/L

Molecule: O=c1[nH]cc(N=Cc2cc(I)cc(I)c2O)c(=O)[nH]1 [XXIV, 2,4-dioxo-5-(2-hydroxy-3,5-diiodobenzylidene) imino-1,3-pyrimidine]
- MIC [3]: 100 µg/mL (≈ 207 µM)
- Maximal tolerable dose: Concentration of tested compounds (mg/l) at oral introducing (no-breed white mice): 300 mg/L

Molecule: CN(C)c1ccc(C=Nc2c[nH]c(=O)[nH]c2=O)cc1 [XXV, 2,4-dioxo-5-(4-dimethylamino-benzylidene) imino-1,3-pyrimidine]
- percentage of cell protection from infection (C.trachomatis D323): 55%
- Number of unchanged cells (C.trachomatis D323): 7.700
- activity against chlamydia (in words) (C.trachomatis D323): marked activity against chlamydia
- Maximal tolerable dose: Concentration of tested compounds (mg/l) at oral introducing (no-breed white mice): 300 mg/L

Molecule: Rifampycin
- MIC [3]: 0.05 µg/mL

Molecule: Vitamin E [reference compound]
- % of reducing AIAT (rats; Vitamin E 100 mg/kg, reference agent): −30%

— US6730787B1, “2,4Dioxo-5-arylidenimino-1,3-pyrimidines” (priority 2001, dated 2004)
